# In patent US12583824B2 (Genzyme Corporation, priority 2019, dated 2026):
# Target: T1, CFTR in primary human bronchial epithelial cells from a ΔF508 homozygous CF donor (CF-HBE cells) (Homo sapiens, UniProt P13569, DEL508-508)
# T1 construct: Primary human bronchial epithelial cells from a ΔF508 homozygous CF donor; host or cells: primary human bronchial epithelial cells (CF-HBE), ΔF508 homozygous donor
# Assay: TECC24 recording analysis of CFTR-mediated transepithelial chloride transport (AUC fold over DMSO)
# Type: cell-based
# Conditions: 3 μM test agent, CF-HBE cells cultured 48 hours at 36.5° C.; ratio of test agent AUC of forskolin-stimulated IEQ divided by vehicle (DMSO) AUC
# Procedure: Example 31: TECC24 AUC Fold Over DMSO @ 3 μM
# The effects of a test agent on CFTR-mediated transepithelial chloride transport was measured using TECC24 recording analysis. Test agents were solubilized in DMSO. Solubilized test agents were mixed with incubation medium containing DMEM/F12, Ultroser G (2%; Crescent Chemical, catalog #67042), Hyclone Fetal Clone II (2%; GE Healthcare, catalog #SH30066.02), bovine brain extract (0.25%; Lonza, catalog #CC-4098), insulin (2.5 μg/mL), IL-13 (10 ng/mL), hydrocortisone (20 nM), transferrin (2.5 μg/mL), triiodothyronine (500 nM), ethanolamine (250 nM), epinephrine (1.5 μM), phosphoethanolamine (250 nM), and retinoic acid (10 nM). Primary human bronchial epithelial cells from a ΔF508 homozygous CF donor (CF-HBE cells; from University of North Carolina Cystic Fibrosis Tissue Procurement Center), grown on Transwell HTS 24-well cell culture inserts (Costar, catalog #3378), were exposed to test agents or controls dissolved in incubation medium. The CF-HBE cells were cultured at 36.5° C. for 48 hours before TECC24 recordings were performed in the presence or absence of test agent, a positive control or vehicle (DMSO).
# Following incubation, the transwell cell culture inserts containing the test agent or control-treated CF-HBE cells were loaded onto a TECC24 apparatus (TECC v7 or MTECC v2; EP Design) to record the transepithelial voltage (VT) and resistance (TEER) using 4 AgCl electrodes per well configured in current-clamp mode. The apical and basolateral bath solutions both contained (in mM) 140 NaCl, 5 KCl, 2 CaCl2), 1 MgCl2, 10 Hepes, and 10 glucose (adjusted to pH 7.4 with NaOH). To inhibit basal Na+ absorption, the ENaC inhibitor benzamil (10 μM) was added to the bath. Then, the adenylate cyclase activator, forskolin (10 μM), was added to the bath to activate CFTR. The forskolin-stimulated Cl-transport was halted by addition of bumetanide (20 μM), an inhibitor of the basolateral chloride co-transporter NKCC1, to the bath to confirm that the detected signal was chloride dependent. VT and TEER recordings were digitally acquired at routine intervals using TECC or MTECC software (EP Design). VT and TEER were transformed into equivalent transepithelial Cl-current (IEQ), and the Area Under the Curve (AUC) of the IEQ time course between forskolin and bumetanide addition is generated using Excel (Microsoft). Efficacy is expressed as the ratio of the test agent AUC divided by vehicle AUC. EC50s based on AUC are generated using the non-linear regression log(agonist) vs. response function in Prism software (GraphPad) with Hill Slope fixed=1.
# If a test agent increased the AUC of the forskolin-stimulated IEQ relative to vehicle in CF-HBE cells, and this increase was inhibited by bumetanide, then the test agent was considered a CFTR corrector.
# T1 sequence (P13569 with tags, fused parts or gaps DEL508-508): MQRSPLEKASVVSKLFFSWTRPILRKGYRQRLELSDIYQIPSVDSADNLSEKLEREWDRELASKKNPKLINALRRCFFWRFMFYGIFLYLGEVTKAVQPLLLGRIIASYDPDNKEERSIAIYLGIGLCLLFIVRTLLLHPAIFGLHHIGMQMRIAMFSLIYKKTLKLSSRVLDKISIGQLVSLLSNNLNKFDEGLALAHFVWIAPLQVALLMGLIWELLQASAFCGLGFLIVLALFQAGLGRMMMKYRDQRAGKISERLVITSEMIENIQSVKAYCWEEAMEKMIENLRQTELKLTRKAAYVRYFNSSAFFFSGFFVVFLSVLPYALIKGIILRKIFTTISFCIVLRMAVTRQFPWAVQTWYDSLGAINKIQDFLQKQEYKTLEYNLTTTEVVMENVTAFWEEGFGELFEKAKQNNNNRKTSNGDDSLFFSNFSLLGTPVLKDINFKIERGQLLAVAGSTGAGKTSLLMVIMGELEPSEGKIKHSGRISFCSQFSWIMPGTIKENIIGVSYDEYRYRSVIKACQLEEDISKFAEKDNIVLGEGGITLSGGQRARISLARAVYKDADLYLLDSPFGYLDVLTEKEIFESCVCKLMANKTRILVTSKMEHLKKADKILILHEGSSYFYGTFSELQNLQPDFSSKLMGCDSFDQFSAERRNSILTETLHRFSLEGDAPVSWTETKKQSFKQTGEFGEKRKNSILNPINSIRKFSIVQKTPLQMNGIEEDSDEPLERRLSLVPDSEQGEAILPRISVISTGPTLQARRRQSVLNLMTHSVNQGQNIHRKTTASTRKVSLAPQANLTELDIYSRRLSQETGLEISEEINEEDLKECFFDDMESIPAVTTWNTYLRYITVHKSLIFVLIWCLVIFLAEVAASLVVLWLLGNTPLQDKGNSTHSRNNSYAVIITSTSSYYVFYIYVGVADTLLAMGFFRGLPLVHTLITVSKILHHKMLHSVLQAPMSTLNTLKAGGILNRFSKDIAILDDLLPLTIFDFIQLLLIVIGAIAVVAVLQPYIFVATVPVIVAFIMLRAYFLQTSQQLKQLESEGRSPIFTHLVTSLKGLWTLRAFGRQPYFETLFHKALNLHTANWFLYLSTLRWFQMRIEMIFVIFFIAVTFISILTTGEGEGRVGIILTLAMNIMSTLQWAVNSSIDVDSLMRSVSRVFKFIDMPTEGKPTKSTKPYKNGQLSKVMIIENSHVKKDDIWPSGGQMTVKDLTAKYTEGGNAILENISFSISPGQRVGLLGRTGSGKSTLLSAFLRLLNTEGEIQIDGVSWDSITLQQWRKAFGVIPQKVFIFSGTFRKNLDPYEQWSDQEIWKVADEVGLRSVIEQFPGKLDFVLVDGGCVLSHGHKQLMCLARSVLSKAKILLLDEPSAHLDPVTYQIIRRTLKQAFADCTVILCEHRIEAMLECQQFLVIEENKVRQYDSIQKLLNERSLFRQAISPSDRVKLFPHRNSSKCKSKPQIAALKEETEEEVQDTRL
row,SMILES,TECC24 AUC vs. DMSO (@3 μM)
1,"Cc1cccc(C)c1-c1nc(NS(=O)(=O)c2ccccc2)cnc1-c1cccc([C@@H]2CC[C@H](OC(F)(F)F)C2)c1 (single isomer, unassigned) [Example 6a]",B (“B” refers to AUC between 2-5)
2,"Cc1cccc(C)c1-c1nc(NS(=O)(=O)c2ccccc2)cnc1-c1cccc([C@@H]2CC[C@@H](OC(F)(F)F)C2)c1 (single isomer, unassigned) [Example 6b]",A (“A “refers to AUC > 5)
3,"Cc1cccc(C)c1-c1nc(NS(=O)(=O)c2cn(C)nc2C)cnc1-c1cccc([C@@H]2CC[C@H](OC(F)(F)F)C2)c1 (single isomer, unassigned) [Example 7a]",C (“C” refers to AUC < 2)
4,"Cc1cccc(C)c1-c1nc(NS(=O)(=O)c2cn(C)nc2C)cnc1-c1cccc([C@@H]2CC[C@@H](OC(F)(F)F)C2)c1 (single isomer, unassigned) [Example 7b]",B (“B” refers to AUC between 2-5)
5,"Cc1nn(C)cc1S(=O)(=O)Nc1cnc(-c2cccc([C@@H]3CC[C@H](OC(F)(F)F)C3)c2)c(-c2ccccc2C(C)C)n1 (single isomer, unassigned) [Example 8a]",C (“C” refers to AUC < 2)
6,"Cc1nn(C)cc1S(=O)(=O)Nc1cnc(-c2cccc([C@@H]3CC[C@@H](OC(F)(F)F)C3)c2)c(-c2ccccc2C(C)C)n1 (single isomer, unassigned) [Example 8b]",B (“B” refers to AUC between 2-5)
7,"CC(C)c1ccccc1-c1nc(NS(=O)(=O)c2ccccc2)cnc1-c1cccc([C@@H]2CC[C@H](OC(F)(F)F)C2)c1 (single isomer, unassigned) [Example 9a]",C (“C” refers to AUC < 2)
8,"CC(C)c1ccccc1-c1nc(NS(=O)(=O)c2ccccc2)cnc1-c1cccc([C@@H]2CC[C@@H](OC(F)(F)F)C2)c1 (single isomer, unassigned) [Example 9b]",C (“C” refers to AUC < 2)
9,"CC(C)n1nccc1-c1nc(NS(=O)(=O)c2ccccc2)cnc1-c1cccc([C@@H]2CCC(OC(F)(F)F)C2)c1 (single isomer, unassigned) [Example 10a]",C (“C” refers to AUC < 2)
10,"CC(C)n1nccc1-c1nc(NS(=O)(=O)c2ccccc2)cnc1-c1cccc([C@@H]2CC[C@@H](OC(F)(F)F)C2)c1 (single isomer, unassigned) [Example 10b]",C (“C” refers to AUC < 2)
11,"O=S(=O)(Nc1ncc(-c2cccc([C@H]3CC[C@H](OC(F)(F)F)C3)c2)c(-c2ccccc2C(F)(F)F)n1)c1ccccc1 (single isomer, unassigned) [Example 27a]",B (“B” refers to AUC between 2-5)
12,"O=S(=O)(Nc1ncc(-c2cccc([C@H]3CC[C@@H](OC(F)(F)F)C3)c2)c(-c2ccccc2C(F)(F)F)n1)c1ccccc1 (single isomer, unassigned) [Example 27b]",A (“A “refers to AUC > 5)
13,"O=S(=O)(Nc1ncc(-c2cccc([C@@H]3CC[C@H](OC(F)(F)F)C3)c2)c(-c2ccccc2C(F)(F)F)n1)c1ccccc1 (single isomer, unassigned) [Example 28a]",A (“A “refers to AUC > 5)
14,"O=S(=O)(Nc1ncc(-c2cccc([C@@H]3CC[C@@H](OC(F)(F)F)C3)c2)c(-c2ccccc2C(F)(F)F)n1)c1ccccc1 (single isomer, unassigned) [Example 28b]",A (“A “refers to AUC > 5)
15,"Nc1cccc(S(=O)(=O)Nc2ncc(-c3cccc([C@H]4CC[C@@H](OC(F)(F)F)C4)c3)c(-c3ccccc3C(F)(F)F)n2)c1 (single isomer, unassigned) [Example 29a]",B (“B” refers to AUC between 2-5)
16,"Nc1cccc(S(=O)(=O)Nc2ncc(-c3cccc([C@H]4CC[C@H](OC(F)(F)F)C4)c3)c(-c3ccccc3C(F)(F)F)n2)c1 (single isomer, unassigned) [Example 29b]",B (“B” refers to AUC between 2-5)
17,"Nc1cccc(S(=O)(=O)Nc2ncc(-c3cccc([C@@H]4CC[C@H](OC(F)(F)F)C4)c3)c(-c3ccccc3C(F)(F)F)n2)c1 (single isomer, unassigned) [Example 30a]",B (“B” refers to AUC between 2-5)
18,"Nc1cccc(S(=O)(=O)Nc2ncc(-c3cccc([C@@H]4CC[C@@H](OC(F)(F)F)C4)c3)c(-c3ccccc3C(F)(F)F)n2)c1 (single isomer, unassigned) [Example 30b]",A (“A “refers to AUC > 5)
19,"CC(C)c1ccccc1-c1nc(NS(=O)(=O)c2ccccc2)cnc1-c1cccc(OCC(F)(F)C(C)(C)C)c1 [Example 1, N-(5-(3-(2,2-difluoro-3,3-dimethylbutoxy)phenyl)-6-(2-isopropylphenyl)pyrazin-2-yl)benzenesulfonamide]",A (“A “refers to AUC > 5)
20,"Cc1cccc(C)c1-c1nc(NS(=O)(=O)c2ccccc2)cnc1-c1cccc(OCC(F)(F)C(C)(C)C)c1 [Example 2, N-(5-(3-(2,2-difluoro-3,3-dimethylbutoxy)phenyl)-6-(2,6-dimethylphenyl)pyrazin-2-yl)benzenesulfonamide]",A (“A “refers to AUC > 5)
21,"Cc1cccc(C)c1-c1nc(NS(=O)(=O)c2ccccc2)cnc1-c1cccc(OCCC(C)(C)C)c1 [Example 3, N-(5-(3-(3,3-dimethylbutoxy)phenyl)-6-(2,6-dimethylphenyl)pyrazin-2-yl)benzenesulfonamide]",A (“A “refers to AUC > 5)
22,"Cc1cccc(C)c1-c1nc(NS(=O)(=O)c2ccccc2)cnc1-c1ccc(F)c(OCC(C)(C)C(F)(F)F)c1 [Example 4, N-(6-(2,6-dimethylphenyl)-5-(4-fluoro-3-(3,3,3-trifluoro-2,2-dimethylpropoxy)phenyl)pyrazin-2-yl)benzenesulfonamide]",A (“A “refers to AUC > 5)
23,"CC(C)c1ccccc1-c1nc(NS(=O)(=O)c2ccccc2)cnc1-n1ccc(OCC(F)(F)C(C)(C)C)n1 [Example 5, N-(5-(3-(2,2-difluoro-3,3-dimethylbutoxy)-1H-pyrazol-1-yl)-6-(2-isopropylphenyl)pyrazin-2-yl)benzenesulfonamide]",A (“A “refers to AUC > 5)
24,"Cc1nn(C)cc1S(=O)(=O)Nc1cnc(-c2cccc([C@@H]3CC[C@@H](OC(F)(F)F)C3)c2)c(-c2ccnn2C(C)C)n1 [Example 11, N-(6-(1-isopropyl-1H-pyrazol-5-yl)-5-(3-((1R,3R)-3-(trifluoromethoxy)cyclopentyl)phenyl)pyrazin-2-yl)-1,3-dimethyl-1H-pyrazole-4-sulfonamide]",C (“C” refers to AUC < 2)
25,"CC(C)(C)COc1cc(-c2ccc(NS(=O)(=O)c3cccc(Cl)n3)nc2-c2ccc(C(F)(F)F)cc2)ccc1Cl [Example 12, 6-chloro-N-(5-(4-chloro-3-(neopentyloxy)phenyl)-6-(4-(trifluoromethyl)phenyl)pyridin-2-yl)pyridine-2-sulfonamide]",B (“B” refers to AUC between 2-5)
26,"CC(C)(C)COc1cc(-c2ccc(NS(=O)(=O)c3cccc(N)n3)nc2-c2ccc(C(F)(F)F)cc2)ccc1Cl [Example 13, 6-amino-N-(5-(4-chloro-3-(neopentyloxy)phenyl)-6-(4-(trifluoromethyl)phenyl)pyridin-2-yl)pyridine-2-sulfonamide]",C (“C” refers to AUC < 2)
